Data from BindingDB's records for doi:10.1021/jm970522y (Parke-Davis Pharmaceutical Research, 1997).

Each compound was assayed against T1, Dimer of Gag-Pol polyprotein [489-587] (Human immunodeficiency virus 1, UniProt P12497) (assay: Protease Inhibition Assay). Settings: pH 6.2; 37 °C.
T1 construct: 489-587
Experimental: For determination of IC50 values, HIV-1 protease was added to assay buffer containing inhibitor and the substrate (H-His-Lys-Ala-Arg-Val-Leu- (p-NO2) Phe-Glu-Ala-norleucine-Ser-NH2). The Leu- (p-NO2) Phe bond of the substrate was cleaved by the enzyme, and the substrate and products were separated by reversed-phase HPLC. Absorbance was measured at 220 nm, peak areas were determined, and percentage conversion to product was calculated.

Row | Structure (SMILES) | IC50 [nM]
1 | Cc1ccc(C(C)(C)C)c(SC2C(=O)CC(CCc3ccccc3)(c3ccc(N)cc3)OC2=O)c1 (stereo not drawn) [6-(4-aminophenyl)-3-[(2-tert-butyl-5-methylphenyl)sulfanyl]-4-hydroxy-6-(2-phenylethyl)-5,6-dihydro-2H-pyran-2-one] | 32
2 | COc1cc(C(C)(C)C)c(SC2C(=O)CC(CCc3ccccc3)(c3ccccc3)OC2=O)cc1C (stereo not drawn) [3-[(2-tert-butyl-4-methoxy-5-methylphenyl)sulfanyl]-4-hydroxy-6-phenyl-6-(2-phenylethyl)-5,6-dihydro-2H-pyran-2-one] | 15
3 | Cc1cc(SC2C(=O)CC(CCc3ccccc3)(c3ccc(OCCO)cc3)OC2=O)c(C(C)(C)C)cc1OCCO (stereo not drawn) [3-{[2-tert-butyl-4-(2-hydroxyethoxy)-5-methylphenyl]sulfanyl}-4-hydroxy-6-[4-(2-hydroxyethoxy)phenyl]-6-(2-phenylethyl)-5,6-dihydro-2H-pyran-2-one] | 6.4
4 | Cc1cc(SC2C(=O)CC(CCc3ccccc3)(c3ccccc3)OC2=O)c(C(C)(C)C)cc1OCCO (stereo not drawn) [PD 178390 Analog 41] | 6.8
5 | Cc1cc(SC2C(=O)CC(CCc3cccc(O)c3)(c3ccccc3)OC2=O)c(C(C)(C)C)cc1CO (stereo not drawn) [3-{[2-tert-butyl-4-(hydroxymethyl)-5-methylphenyl]sulfanyl}-4-hydroxy-6-[2-(3-hydroxyphenyl)ethyl]-6-phenyl-5,6-dihydro-2H-pyran-2-one] | 2.5
6 | Cc1cc(SC2C(=O)CC(CCc3ccc(O)cc3)(c3ccc(O)cc3)OC2=O)c(C(C)(C)C)cc1CO (stereo not drawn) [3-{[2-tert-butyl-4-(hydroxymethyl)-5-methylphenyl]sulfanyl}-4-hydroxy-6-(4-hydroxyphenyl)-6-[2-(4-hydroxyphenyl)ethyl]-5,6-dihydro-2H-pyran-2-one] | 120
7 | Cc1cc(SC2C(=O)CC(CCc3ccccc3)(c3ccccc3)OC2=O)c(C(C)(C)C)cc1CO (stereo not drawn) [PD 178390 Analog 38] | 6.6
8 | Cc1cc(SC2C(=O)CC(CCc3ccccc3)(c3ccc(OCCO)cc3)OC2=O)c(C(C)(C)C)cc1CO (stereo not drawn) [3-{[2-tert-butyl-4-(hydroxymethyl)-5-methylphenyl]sulfanyl}-4-hydroxy-6-[4-(2-hydroxyethoxy)phenyl]-6-(2-phenylethyl)-5,6-dihydro-2H-pyran-2-one] | 1.4
9 | Cc1cc(SC2C(=O)CC(C)(CCc3ccc(O)cc3)OC2=O)c(C(C)(C)C)cc1CO (stereo not drawn) [PD 178390 Analog 12] | 4.3
10 | Cc1ccc(C(C)(C)C)c(SC2C(=O)CC(CCc3ccccc3)(c3ccc(O)cc3)OC2=O)c1 (stereo not drawn) [3-[(2-tert-butyl-5-methylphenyl)sulfanyl]-4-hydroxy-6-(4-hydroxyphenyl)-6-(2-phenylethyl)-5,6-dihydro-2H-pyran-2-one] | 40
11 | COCc1cc(C(C)(C)C)c(SC2C(=O)CC(CCc3ccccc3)(c3ccc(OCCO)cc3)OC2=O)cc1C (stereo not drawn) [3-{[2-tert-butyl-4-(methoxymethyl)-5-methylphenyl]sulfanyl}-4-hydroxy-6-[4-(2-hydroxyethoxy)phenyl]-6-(2-phenylethyl)-5,6-dihydro-2H-pyran-2-one] | 4.5
12 | Cc1cc(SC2C(=O)CC(CCc3ccccc3)(c3ccc(OCCO)cc3)OC2=O)c(C(C)(C)C)cc1O (stereo not drawn) [3-[(2-tert-butyl-4-hydroxy-5-methylphenyl)sulfanyl]-4-hydroxy-6-[4-(2-hydroxyethoxy)phenyl]-6-(2-phenylethyl)-5,6-dihydro-2H-pyran-2-one] | 3.7
13 | Cc1cc(SC2C(=O)CC(CCc3cccc(N)c3)(c3ccccc3)OC2=O)c(C(C)(C)C)cc1CO (stereo not drawn) [6-[2-(3-aminophenyl)ethyl]-3-{[2-tert-butyl-4-(hydroxymethyl)-5-methylphenyl]sulfanyl}-4-hydroxy-6-phenyl-5,6-dihydro-2H-pyran-2-one] | 4
14 | Cc1ccc(C(C)(C)C)c(SC2C(=O)CC(CCc3ccc(N)cc3)(c3ccccc3)OC2=O)c1 (stereo not drawn) [6-[2-(4-aminophenyl)ethyl]-3-[(2-tert-butyl-5-methylphenyl)sulfanyl]-4-hydroxy-6-phenyl-5,6-dihydro-2H-pyran-2-one] | 24
15 | Cc1cc(SC2C(=O)CC(CCc3ccc(O)cc3)(C(C)C)OC2=O)c(C(C)(C)C)cc1CO (stereo not drawn) [3-{[2-tert-butyl-4-(hydroxymethyl)-5-methylphenyl]sulfanyl}-4-hydroxy-6-[2-(4-hydroxyphenyl)ethyl]-6-(propan-2-yl)-5,6-dihydro-2H-pyran-2-one] | 3.6
16 | Cc1cc(SC2C(=O)CC(CCc3ccc(O)cc3)(C3CCCCC3)OC2=O)c(C(C)(C)C)cc1CO (stereo not drawn) [PD 178390 Analog 21] | 4.1
17 | Cc1cc(SC2C(=O)CC(CCc3ccccc3)(c3ccccc3)OC2=O)c(C(C)(C)C)cc1O (stereo not drawn) [3-[(2-tert-butyl-4-hydroxy-5-methylphenyl)sulfanyl]-4-hydroxy-6-phenyl-6-(2-phenylethyl)-5,6-dihydro-2H-pyran-2-one] | 33
18 | Cc1cc(SC2C(=O)CC(CCc3ccc(N)cc3)(C3CCCCC3)OC2=O)c(C(C)(C)C)cc1CO (stereo not drawn) [PD 178390 Analog 36] | 3.2
19 | Cc1ccc(C(C)(C)C)c(SC2C(=O)CC(CCc3ccc(O)cc3)(c3ccccc3)OC2=O)c1 (stereo not drawn) [PD 178390 Analog 1] | 11
20 | Cc1ccc(C(C)(C)C)c(SC2C(=O)CC(CCc3ccccc3)(c3ccccc3)OC2=O)c1 (stereo not drawn) [4-Hydroxy-5,6-dihydropyrone deriv. 49] | 35
21 | Cc1cc(SC2C(=O)CC(CCc3ccc(N)cc3)(c3ccccc3)OC2=O)c(C(C)(C)C)cc1CO (stereo not drawn) [PD 178390 Analog 33] | 3.1
22 | Cc1ccc(C(C)(C)C)c(SC2C(=O)CC(CCc3ccccc3)(c3ccc(OCCO)cc3)OC2=O)c1 (stereo not drawn) [3-[(2-tert-butyl-5-methylphenyl)sulfanyl]-4-hydroxy-6-[4-(2-hydroxyethoxy)phenyl]-6-(2-phenylethyl)-5,6-dihydro-2H-pyran-2-one] | 12
23 | Cc1cc(SC2C(=O)CC(CCc3ccc(N)cc3)(C(C)C)OC2=O)c(C(C)(C)C)cc1CO (stereo not drawn) [6-[2-(4-aminophenyl)ethyl]-3-{[2-tert-butyl-4-(hydroxymethyl)-5-methylphenyl]sulfanyl}-4-hydroxy-6-(propan-2-yl)-5,6-dihydro-2H-pyran-2-one] | 2.7
